Assay results published in patent US4401604A, “Process for preparing thiosulfenamide derivatives of N-phosphonomethylglycine triesters” (Monsanto Company, priority 1981, dated 1983).

Columns and labels:
Experiment in all cases: Post-emergence herbicidal activity, greenhouse
Format in all cases: in vivo
Details in all cases: Table I, 4 WAT
[1] = tested on: Cocklebur
Description: (§1) A good grade of top soil is placed in aluminum pans having holes in the bottom and compacted to a depth of 0.95 to 1.27 cm. from the top of the pan. A predetermined number of seeds of each of several dicotyledonous and monocotyledonous annual plant species and/or vegetative propagules for the perennial plant species are placed on the soil and pressed into the soil surface. The seeds and/or vegetative propagules are covered with soil and leveled. The pans are then placed on a sand bench in the greenhouse and watered from below as needed. After the plants reach the desired age (two to three weeks), each pan except for the control pans is removed individually to a spraying chamber and sprayed by means of an atomizer operating at a positive air pressure of approximately 1.46 kg/cm^2 absolute. The atomizer contains 6 ml. of a solution or suspension of the chemical. In that 6 ml., is an amount of a cyclohexanone emulsifying agent mixture to give a spray solution or suspension which contains about 0.4% by weight of the emulsifier. The spray solution or suspension contains a sufficient amount of the candidate chemical in order to give application rates corresponding to those set forth in the tables. The spray solution is prepared by taking an aliquot of a 1.0% by weight stock solution or suspension of the candidate chemical in an organic solvent such as acetone or tetrahydrofuran or in water. The emulsifying agent employed is a mixture comprising 35 weight percent butylamine dodecylbenzene sulfonate and 65 weight percent of a tall oil ethylene oxide condensate having about 11 moles of ethylene oxide per mole of tall oil. The pans are returned to the greenhouse and watered as before and the injury to the plants as compared to the control is observed at approximately two and four weeks as indicated in the tables under WAT and the results recorded. In some instances, the two-week observations are omitted.
(§2) The post-emergence herbicidal activity index used in Table I is as follows:
(§3) The plant species utilized in these tests are identified by letter in accordance with the following legend: […]

[2] = tested on: Barnyardgrass
Description: as §1, §2, §3

[3] = tested on: Morningglory
Description: as §1, §2, §3

[4] = tested on: Yellow Nutsedge
Description: as §1, §2, §3

[5] = tested on: Downy Brome
Description: as §1, §2, §3

[6] = tested on: Quackgrass
Description: as §1, §2, §3

[7] = tested on: Johnsongrass
Description: as §1, §2, §3

[8] = tested on: Lambsquarters
Description: as §1, §2, §3

[9] = tested on: Velvetleaf
Description: as §1, §2, §3

CCOC(=O)CN(CP(=O)(Oc1ccc(Cl)c(C)c1)Oc1ccc(Cl)c(C)c1)SSc1ccc(OC)cc1 [VII]
post-emergence herbicidal activity index ([1]; 5.6 kg/h): 1 (25-49% control)
post-emergence herbicidal activity index ([1]; 11.2 kg/h): 2 (50-74% control)
post-emergence herbicidal activity index ([2]; 5.6 kg/h): 3 (75-99% control)
post-emergence herbicidal activity index ([2]; 11.2 kg/h): 3 (75-99% control)
post-emergence herbicidal activity index ([3]; 5.6 kg/h): 1 (25-49% control)
post-emergence herbicidal activity index ([3]; 11.2 kg/h): 1 (25-49% control)
post-emergence herbicidal activity index ([4]; 5.6 kg/h): 2 (50-74% control)
post-emergence herbicidal activity index ([4]; 11.2 kg/h): 1 (25-49% control)
post-emergence herbicidal activity index ([5]; 5.6 kg/h): 2 (50-74% control)
post-emergence herbicidal activity index ([5]; 11.2 kg/h): 2 (50-74% control)
post-emergence herbicidal activity index ([6]; 5.6 kg/h): 1 (25-49% control)
post-emergence herbicidal activity index ([6]; 11.2 kg/h): 1 (25-49% control)
post-emergence herbicidal activity index ([7]; 5.6 kg/h): 3 (75-99% control)
post-emergence herbicidal activity index ([7]; 11.2 kg/h): 2 (50-74% control)
post-emergence herbicidal activity index ([8]; 5.6 kg/h): 2 (50-74% control)
post-emergence herbicidal activity index ([8]; 11.2 kg/h): 2 (50-74% control)
post-emergence herbicidal activity index ([9]; 5.6 kg/h): 1 (25-49% control)
post-emergence herbicidal activity index ([9]; 11.2 kg/h): 1 (25-49% control)
